# Laboratory results as given in patent US20050170345A1, “Neuroglobin is up-regulated by and protects neurons from hypoxic-ischemic injury” (priority 2001, published 2005).
# Entries after “also recorded” stand apart in the source; their conditions may differ. Like-named read-outs stand apart in the source and are kept apart here. {Fluorescein} = fluorescein label
# Key:
# Ngb [1] = experiment: Ngb expression in cultured cortical neurons treated with hypoxia mimetics or other stressors (Western blot); assay type: cell-based, mouse
# Ngb protein = Ngb protein expression in HN33 cells (Western blot); assay type: cell-based, mouse; settings: HN33 cells; for effect on induction of Ngb expression by hemin (Western blot): 1 h pretreatment then 50 μM hemin 24 h, LY83583 1 μM, KT5823 8 μM, GF109203X 10 μM, PD98059 20 μM
# Experimental: (§1) HN33 cells were cultured as described (Lee et al. (1990) J Neurosci. 10: 1779-1787; Shi et al. (1998) J Neurochem., 70:1035-1044; Jin et al. (2000) Proc Nati Acad Sci USA., 97:10242-10247). Cells were plated at 4×10^5 cells/well onto uncoated, 6-well plastic culture dishes in Dulbecco's modified Eagle's medium containing 10% (v/v) fetal bovine serum, 100 units/ml of penicillin and 100 μg/ml of streptomycin, and maintained at 37° C. in humidified 95% air/5% CO2. Cells were treated with hemin (typically 50 μM) or 8-Br-cGMP (10 μM) for up to 3 days, without daily replacement. To suppress sGC or PKG activity, cells were pretreated for 1 hour with inhibitors before adding other reagents.
# (§2) Cells were washed twice in PBS, and whole-cell extracts were prepared by adding 10 volumes of 1× sample buffer containing 2% SDS, 100 mM dithiothreitol, 60 mM Tris (pH 6.8) and 10% glycerol, and boiled for 5 minutes. Protein concentrations were determined using Bradford Protein Assays (Bio-Rad, Hercules, Calif.); 30 μg of protein was analyzed by 12% or 15% SDS-PAGE and transferred to Immuno-Blot PVDF membranes (Bio-Rad). Membranes were probed with affinity-purified anti-Ngb antibody, which was produced by immunizing with a synthetic peptide corresponding to amino-acids 35-50 (NH2-CLSSPEFLDHIRKVML-COOH, (SEQ ID NO:11) of mouse Ngb (Sun et aL (2001 Proc Natl Acad Sci USA. 98:15306-15311),and the signal was detected with Boehringer Mannheim chemiluminescence blotting kits. Differences in protein expression on Western blots were quantified using a GS-710 calibrated imaging densitometer and Quantity One software (Bio-Rad).
# Ngb [2] = experiment: Hypoxia-induced Ngb expression in HN33 cells pretreated with protein kinase inhibitors (Western blot); assay type: cell-based, mouse; settings: inhibitor 1 hour then hypoxia (95% N2/5% CO2) 20 hours
# Experimental: FIGS. 10A and 10B show the effects of protein kinase inhibitors on hypoxia-induced Ngb expression. HN33 cells were treated with protein kinase inhibitors at the indicated concentrations for 1 hour, and then exposed to hypoxia (95% N2/5% CO2) for 20 hours. Western blotting was used to detect Ngb protein expression (FIG. 10A), which was quantified by computer densitometry (FIG. 10B). Data are representative blots (top) or means±SEM (bottom) from 3 experiments. *P<0.05 for drug treatment relative to hypoxia alone.
# as §2
# Ngb mRNA = Ngb mRNA expression in HN33 cells (RT-PCR, quantitative RT-PCR, Northern blot); assay type: cell-based, mouse; settings: HN33 cells; for effect on hemin-induced Ngb expression at the mRNA level (quantitative RT-PCR): 1 h pretreatment then 50 μM hemin 24 h, LY83583 1 μM, KT5823 8 μM
# Experimental: as §1
# RT-PCR and Northern blot analyses were carried out as described previously (Zhu and Zhang (1999) Biochem Biophys Res Commun., 258:87-93). Briefly, total RNA from treated and untreated cells was extracted using a RNeasy Mini Kit (QIAGEN Operon, Valencia, Calif.), and DNA-free total RNA (2 μg per sample) was reverse-transcribed into first-strand cDNA using the Reverse Transcription System and Oligo-dT12-18 (GIBCO-BRL, Rockville, Md.) (Id.). Sequences of the primers used for PCR amplification were: Ngb forward, 5′ CTCTGGAACATGGCACTGTC 3′ (nt 135-154, SEQ ID NO:7); Ngb reverse, 5′ GCACTGGCTCGTCTCTTACT 3′ (nt 547-528, SEQ ID NO:8); β-actin forward, 5′ CACAGGCATTGTGATGGACTC 3′ (nt 524-544, SEQ ID NO:9); β-actin reverse, 5′ GCTCAGGAGGAGCAATGATCT 3′ (nt 582-563, (SEQ ID NO:10). Primers were designed based on the published sequences of these genes and were synth esized by QIAGEN Operon. All PCR primer pairs gave rise to only one discrete band of the expected size. PCR reactions were carried out in a total volume of 25 μl containing 2 μl cDNA, 1×PCR buffer (Boehringer Mannheim, Mannheim, FRG), 200 μM dNTPs, 0.6 U Taq DNA polymerase (Boehringer Mannheim), and 0.2 μM primers. The optimal conditions for amplification (temperature and cycle number) were determined experimentally according to previously published procedures (Id.). Different ratios of Ngb to b-actin primer pairs were tested to ensure that Ngb and b-actin were amplified with similar efficiency, and a kinetic study was undertaken to establish the number of cycles sufficient to detect both Ngb and b-actin without reaching saturation for either. The parameters chosen for PCR amplification were 95° C. for 1 minute, 57° C. for 45 seconds, 72° C. for 1 minute for 25-30 cycles, and a final incubation at 72° C. for 10 minutes. PCR products were separated on 1.2% agarose gels, visualized by ethidium bromide staining, and quantified using a ChemiImage System (Alpha Innotech Corporation, San Leandro, Calif.).
# For Northern blotting, 15 μg of total RNA from each sample was fractionated on 1% formaldehyde/agarose gels and transferred to Hybond-N nylon membranes (Amersham Pharmacia, Piscataway, N.J.). Filters were hybridized with probes for Ngb MRNA, and β-actin mRNA at 68° C. in hybridization buffer (Clontech, Palo Alto, Calif.). ^32P-radiolabeled DNA probes were synthesized using cDNA obtained from RT-PCR amplification.
# Quantitative RT-PCR analysis was carried out as described previously.8 PCR reactions were carried out in a total volume of 25 μl containing 1 μI cDNA, 1×PCR buffer (Boehringer Mannheim), 200 μM dNTPs, 0.6 U Taq DNA polymerase (Boehringer Mannheim), two pairs of primers (one pair for the Ngb gene, another for the b-actin gene used as an internal control). The optimal conditions for amplification (the proportion between the two pairs of primers, temperatures, and cycle numbers) were determined experimentally according to previously established procedures.8 PCR products were separated on 1.2% agarose gels, visualized by ethidium bromide staining, and quantified using a ChemiImage System (Alpha Innotech Corporation).
# [3] = tested on: vascular endothelial growth factor; settings: aortic smooth muscle cells; cited from earlier work
# [4] = tested on: 17-20 kDa caspase-3 cleavage product; experiment: Caspase-3 cleavage product immunofluorescence in ODN-transfected cortical neurons; assay type: cell-based, mouse; settings: fluorescence microscopy, hypoxic cortical neurons
# Experimental: Cultures were fixed with 4% paraformaldehyde and incubated over night at 4° C. with one or more of the following primary antibodies: rabbit polyclonal anti-Ngb (1:200), mouse monoclonal anti-NeuN (1:200, Chemicon), and rabbit polyclonal anti-17-20 kDa caspase-3 cleavage product (1:100, New England Biolabs). The secondary antibodies (all 1:200) were fluorescein isothiocyanate-conjugated goat anti-rabbit or anti-mouse IgG (Vector) and rhodamine-conjugated donkey anti-rabbit IgG (Jackson ImmunoResearch). Controls for non-specific binding included omitting primary (FIG. 1C) or secondary antibodies. In addition, in some cultures, nuclei were labeled with 4′,6-diamidino-2-phenylindole (DAPI) or DNA strand breaks were labeled with the Klenow fragment of DNA polymerase I (Roche) followed by rhodamine avidin D (Vector), as described (Jin et al. (1999) J Neurochem 72: 1204-1214). Fluorescence signals were detected with a Nikon E800 epifluorescence microscope using excitation/emission wavelengths of 535/565 nm for rhodamine (red), 470/505 nm for fluorescein isothiocyanate (green) and 360/400 nm for DAPI (blue). Results were recorded with a Magnifire digital color camera (Optronics). […]
compound,measurement,setting,value
CN[C@@H]1C[C@H]2O[C@@](C)([C@@H]1OC)n1c3ccccc3c3c4c(c5c6ccccc6n2c5c31)C(=O)NC4 [staurosporine],Ngb expression,"Ngb [1]; cultured cortical neurons treated 24 h, 300 μM CoCl2 (Co2+), 100 μM Dfx, 0.1 μM staurosporine, 500 μM SNP, Western blot",did not increase Ngb expression; also recorded: no change
COC(=O)[C@@]1(OC)C[C@H]2O[C@]1(C)n1c3ccccc3c3c4c(c5c6ccccc6n2c5c31)C(=O)N(C)C4 [KT5823],effect on induction of Ngb expression by hemin (Western blot),Ngb protein,attenuated; also recorded: significantly diminished
same,effect on hypoxic induction of Ngb,Ngb [2],not blocked
same,effect on hemin-induced Ngb expression at the mRNA level (quantitative RT-PCR),Ngb mRNA,significantly inhibited
Nc1nc2c(nc(Br)n2[C@@H]2O[C@@H]3COP(=O)(O)O[C@H]3[C@H]2O)c(=O)[nH]1 [8-Br-cGMP],inductive effect of hemin on neuroglobin reproduced by the agent,Ngb protein,mimicked
same,increase in Ngb protein expression,"Ngb protein; 10 μM 8-Br-cGMP, 2-24 h",2- to 2.5 fold
same,effect on hypoxic induction of vascular endothelial growth factor,[3],suppress
same,increase in Ngb mRNA expression,"Ngb mRNA; 10 μM 8-Br-cGMP, 2-24 h",3- to 4 fold
O=C1C(Nc2ccccc2)=CC(=O)c2ncccc21 [LY83583],effect on induction of Ngb expression by hemin (Western blot),Ngb protein,attenuated; also recorded: significantly diminished
same,effect on hypoxic induction of Ngb,Ngb [2],not blocked
same,effect on hemin-induced Ngb expression at the mRNA level (quantitative RT-PCR),Ngb mRNA,significantly inhibited
COc1cccc(-c2cc(=O)c3ccccc3o2)c1N [PD98059],effect on induction of Ngb expression by hemin (Western blot),Ngb protein,no significant effect
same,effect on hypoxic induction of Ngb,Ngb [2],blocked
[Cl-].[Cl-].[Co+2] [CoCl2],Ngb expression,Ngb [1],increased Ngb expression
"5′-ATG GAG CGC CCG GA-3′ (sense ATGGAGCGCCCGGA; DNA, 5' {Fluorescein}, backbone and methylation of C not given here) [sense ODN]",transfected cells co-expressing the 17-20 kDa caspase-3 cleavage product,[4],few
CN(C)CCCn1cc(C2=C(c3c[nH]c4ccccc34)C(=O)NC2=O)c2ccccc21 [GF109203X],effect on induction of Ngb expression by hemin (Western blot),Ngb protein,no significant effect
